# Source: the NIST ThermoML archive (doi:10.1016/j.jct.2012.11.032)
# Numbers after ± are expanded uncertainties.
# Assay: xn = mol fraction of the nth substance listed
# Conditions: 101 kPa, Liquid; for mass density: Vibrating tube method; for speed of sound: Sing-around technique in a fixed-path interferometer
smiles,measurement,setting,value
CCCCCCCC[n+]1ccn(C)c1.[Cl-] [1-methyl-3-octylimidazolium chloride] + O,mass density,"298 K, x1 = 0.000276",997.161 ± 0.1 kg/m3
same,mass density,"298 K, x1 = 0.000495",997.221 ± 0.1 kg/m3
same,mass density,"298 K, x1 = 0.000781",997.313 ± 0.1 kg/m3
same,mass density,"298 K, x1 = 0.00102",997.386 ± 0.1 kg/m3
same,mass density,"298 K, x1 = 0.0013",997.479 ± 0.1 kg/m3
same,mass density,"298 K, x1 = 0.001503",997.527 ± 0.1 kg/m3
same,mass density,"298 K, x1 = 0.001892",997.639 ± 0.1 kg/m3
same,mass density,"298 K, x1 = 0.002073",997.696 ± 0.1 kg/m3
same,mass density,"298 K, x1 = 0.002376",997.786 ± 0.1 kg/m3
same,mass density,"298 K, x1 = 0.00261",997.846 ± 0.1 kg/m3
same,mass density,"298 K, x1 = 0.002774",997.889 ± 0.1 kg/m3
same,mass density,"298 K, x1 = 0.003111",997.987 ± 0.1 kg/m3
same,mass density,"298 K, x1 = 0.003716",998.157 ± 0.1 kg/m3
same,mass density,"298 K, x1 = 0.003899",998.198 ± 0.1 kg/m3
same,mass density,"298 K, x1 = 0.004079",998.254 ± 0.1 kg/m3
same,mass density,"298 K, x1 = 0.004181",998.28 ± 0.1 kg/m3
same,mass density,"298 K, x1 = 0.004462",998.349 ± 0.1 kg/m3
same,mass density,"298 K, x1 = 0.004601",998.382 ± 0.1 kg/m3
same,mass density,"298 K, x1 = 0.004981",998.469 ± 0.1 kg/m3
same,mass density,"298 K, x1 = 0.005198",998.52 ± 0.1 kg/m3
same,mass density,"298 K, x1 = 0.005607",998.619 ± 0.1 kg/m3
same,mass density,"298 K, x1 = 0.005782",998.649 ± 0.1 kg/m3
same,speed of sound,"303 K, x1 = 0.000276",1511.7 ± 1.2 m/s
same,speed of sound,"303 K, x1 = 0.000495",1513.5 ± 1.2 m/s
same,speed of sound,"303 K, x1 = 0.000781",1515.8 ± 1.2 m/s
same,speed of sound,"303 K, x1 = 0.00102",1517.8 ± 1.2 m/s
same,speed of sound,"303 K, x1 = 0.0013",1520 ± 1.2 m/s
same,speed of sound,"303 K, x1 = 0.001503",1521.6 ± 1.2 m/s
same,speed of sound,"303 K, x1 = 0.001892",1524.7 ± 1.2 m/s
same,speed of sound,"303 K, x1 = 0.002073",1526.1 ± 1.2 m/s
same,speed of sound,"303 K, x1 = 0.002376",1528.3 ± 1.2 m/s
same,speed of sound,"303 K, x1 = 0.00261",1530.2 ± 1.2 m/s
same,speed of sound,"303 K, x1 = 0.002774",1531.2 ± 1.2 m/s
same,speed of sound,"303 K, x1 = 0.003111",1533.7 ± 1.2 m/s
same,speed of sound,"303 K, x1 = 0.003716",1537.7 ± 1.2 m/s
same,speed of sound,"303 K, x1 = 0.003899",1538.8 ± 1.2 m/s
same,speed of sound,"303 K, x1 = 0.004079",1540 ± 1.2 m/s
same,speed of sound,"303 K, x1 = 0.004181",1540.7 ± 1.2 m/s
same,speed of sound,"303 K, x1 = 0.004462",1542.4 ± 1.2 m/s
same,speed of sound,"303 K, x1 = 0.004601",1543.2 ± 1.2 m/s
same,speed of sound,"303 K, x1 = 0.004981",1545.2 ± 1.2 m/s
same,speed of sound,"303 K, x1 = 0.005198",1546.2 ± 1.2 m/s
same,speed of sound,"303 K, x1 = 0.005607",1548.2 ± 1.2 m/s
same,speed of sound,"303 K, x1 = 0.005782",1549 ± 1.2 m/s
same,mass density,"303 K, x1 = 0.000276",995.767 ± 0.1 kg/m3
same,mass density,"303 K, x1 = 0.000495",995.808 ± 0.1 kg/m3
same,mass density,"303 K, x1 = 0.000781",995.896 ± 0.1 kg/m3
same,mass density,"303 K, x1 = 0.00102",995.954 ± 0.1 kg/m3
same,mass density,"303 K, x1 = 0.0013",996.029 ± 0.1 kg/m3
same,mass density,"303 K, x1 = 0.001503",996.067 ± 0.1 kg/m3
same,mass density,"303 K, x1 = 0.001892",996.169 ± 0.1 kg/m3
same,mass density,"303 K, x1 = 0.002073",996.211 ± 0.1 kg/m3
same,mass density,"303 K, x1 = 0.002376",996.287 ± 0.1 kg/m3
same,mass density,"303 K, x1 = 0.00261",996.341 ± 0.1 kg/m3
same,mass density,"303 K, x1 = 0.002774",996.377 ± 0.1 kg/m3
same,mass density,"303 K, x1 = 0.003111",996.455 ± 0.1 kg/m3
same,mass density,"303 K, x1 = 0.003716",996.597 ± 0.1 kg/m3
same,mass density,"303 K, x1 = 0.003899",996.633 ± 0.1 kg/m3
same,mass density,"303 K, x1 = 0.004079",996.675 ± 0.1 kg/m3
same,mass density,"303 K, x1 = 0.004181",996.696 ± 0.1 kg/m3
same,mass density,"303 K, x1 = 0.004462",996.755 ± 0.1 kg/m3
same,mass density,"303 K, x1 = 0.004601",996.78 ± 0.1 kg/m3
same,mass density,"303 K, x1 = 0.004981",996.85 ± 0.1 kg/m3
same,mass density,"303 K, x1 = 0.005198",996.89 ± 0.1 kg/m3
same,mass density,"303 K, x1 = 0.005607",996.962 ± 0.1 kg/m3
same,mass density,"303 K, x1 = 0.005782",996.986 ± 0.1 kg/m3
same,speed of sound,"308 K, x1 = 0.000276",1522.2 ± 1.2 m/s
same,speed of sound,"308 K, x1 = 0.000495",1523.8 ± 1.2 m/s
same,speed of sound,"308 K, x1 = 0.000781",1526 ± 1.2 m/s
same,speed of sound,"308 K, x1 = 0.00102",1527.8 ± 1.2 m/s
same,speed of sound,"308 K, x1 = 0.0013",1529.8 ± 1.2 m/s
same,speed of sound,"308 K, x1 = 0.001503",1531.3 ± 1.2 m/s
same,speed of sound,"308 K, x1 = 0.001892",1534.1 ± 1.2 m/s
same,speed of sound,"308 K, x1 = 0.002073",1535.4 ± 1.2 m/s
same,speed of sound,"308 K, x1 = 0.002376",1537.4 ± 1.2 m/s
same,speed of sound,"308 K, x1 = 0.00261",1539.1 ± 1.2 m/s
same,speed of sound,"308 K, x1 = 0.002774",1540.1 ± 1.2 m/s
